Assay: zone of inhibition activity
Type: cell-based
Conditions: compared with zn bacitracin

Q: For Cu-zn bacitrate, which “zone of inhibition activity” value is on record?
A: greater zone of inhibition activity than zn bacitracin

Reference: patent publication US20140248221A1, “COMPOSITIONS FOR ORAL USE AND METHODS FOR TREATING THE ORAL MUCOSA, LIPS, AND PERIORAL REGIONS” (JR CHEM, LLC, priority 2011, published 2014)
